Several values for one entry are separate records, joined by “and”; a condition that tells them apart may be missing. Equal entries are not always repeated. Entries after “also recorded” stand apart in the source; their conditions may differ.
Columns and labels:
[1] = test system: Notch target genes (HEY1, IL7R alpha, NOTCH1, 2 and 4); experiment: Peripheral Notch target gene expression versus exposure (gene panel, in words); assay type: in vivo, human; details: patients with ACC on twice daily dosing (n = 13); up to 1,000 mg (500 mg twice daily)
Description: Archival tumor tissue (not older than 6 months prior to screening) or fresh tumor biopsy was required to characterize Notch alteration status by targeted genomic sequencing and/or NICD1 expression (via IHC) among the confirmatory cohort at baseline. Repeat biopsy on cycle 2 day 15 and at disease progression was optional. Serial whole blood samples (and/or bone marrow samples and saliva among patients with T-ALL/T-LBL) were obtained on day 1 of cycles 1–6 to evaluate the dynamics of Notch gene expression. Peripheral blood was collected with PaxGene tubes and frozen at −20°C until processing. RNA was extracted (Qiagen RNeasy Micro kit) from peripheral whole blood and analyzed by Nanostring with percent change in expression levels reported with respect to baseline normalized values.
Percent change (%) in peripheral blood cell Notch target gene expression was monitored among a subset of patients with ACC receiving twice daily dosing (n = 13).

[2] = test system: advanced solid tumors, adenoid cystic carcinoma (ACC); experiment: Antitumor efficacy and survival (RECIST v1.1 response, CBR, PFS, OS); assay type: in vivo, human
Description: The study enrolled adults with histologically confirmed, locally advanced and/or metastatic solid tumors who had progressed on at least one line of prior systemic therapy (except for ACC) and relapsed/refractory T-ALL/LBL for whom no standard therapy was available. In dose escalation, participants with solid tumors with known or frequent Notch pathway–activating mutations were eligible (breast cancer, gastrointestinal tumors, hepatocellular carcinoma, osteosarcoma, malignant glomus tumor, and ACC), while the confirmatory cohort planned to enroll participants with selected tumor types (including T-ALL/LBL) and confirmed Notch pathway activation. Key eligibility criteria included patients ≥18 years of age with evaluable disease, Eastern Cooperative Oncology Group (ECOG) performance status 0–1, able to swallow capsules, and adequate organ function. Participants were excluded if they had clinically significant cardiac disease or thromboembolic events within the preceding 6 months, and drugs prolonging the QTc were avoided. A complete list of eligibility criteria is outlined in the Supplementary Materials and Methods.
Safety was assessed via monitoring of DLTs during the first treatment cycle, and of AEs, physical exam, and clinical lab results (hematology, coagulation, blood chemistry, urinalysis, and cardiac markers) throughout the study (Supplementary Table S1). 12-lead electrocardiograms and Holter safety monitoring with periodic cardiac imaging was employed. Efficacy assessments used RECIST v1.1 applied to CT/MRI scans performed at screening and every 8 weeks; or evaluated complete remission with complete hematologic recovery by National Comprehensive Cancer Network guideline criteria for T-ALL/T-LBL. Adherence to study drug administration was evaluated using both patient diaries and capsule counts.
The primary endpoint for dose escalation was the number of patients experiencing DLT during the first 28-day cycle of CB-103 and for the confirmatory phase, the incidence rate, severity, and relationship of AEs to CB-103. Secondary endpoints included assessment of clinical benefit rate [CBR; defined as achieving complete and/or partial response and/or stable disease (SD) at prespecified benchmarks], duration of response, progression-free survival (PFS) and overall survival (OS), and plasma pharmacokinetics.
The objective of the BLRM design ([10]) was to determine the MTD defined as the highest dose with less than 25% risk of the true DLT rate being above 33%. The MTD was considered reached if one of the following criteria was fulfilled: (i) if the posterior probability of the true DLT rate in the target interval (16%–33%) of the MTD was >50%, and (ii) at least 6 patients were treated at the MTD. Under this model, and accounting for dropouts and some additional patients enrolled to each cohort, approximately 55 patients were anticipated to enroll in dose escalation and approximately 45 patients in the confirmatory phase. Data were reported using 95% confidence intervals (CI) and survival endpoints (PFS, OS) are reported from the time of first treatment to the first of progression or death summarized by Kaplan–Meier estimates. All statistical analyses were analyzed using SAS v9.4 software.

[3] = ACC confirmatory cohort (n = 12), 500 mg once daily
[4] = All solid tumor patients (n = 76)

CC(C)(C)c1ccc(Oc2ccc(N)cn2)cc1 [CB-103]
Peripherally measured Notch target gene expression levels versus exposure/dose [1]: downregulation; also recorded: declined with increasing exposure | 3-month PFS (95% CI) [2, 3]: 10.9 (0.6–38.0) | Best overall response: Complete response [2, 3]: 0 n, % | Best overall response: Partial response [2, 3]: 0 n, % | Best overall response: Progressive disease [2, 3]: 7 (58) n, % | Best overall response: Stable disease [2, 3]: 3 (25) n, % | Best overall response: Unevaluable [2, 3]: 2 (17) n, % | Clinical benefit rate, 3 months (95% CI) [2, 3]: 25.0 (5.5–57.2) — — % | Median OS (95% CI) [2, 3]: 5.4 (1.3–5.4) months | Median PFS (95% CI) [2, 3]: 1.4 (0.8–2.3) months | Overall survival: No. of deaths [2, 3]: 4 (33) n, % | Progression-free survival: No. of events [2, 3]: 10 (83) n, % | 3-month PFS (95% CI) ([2]; All patients with ACC (n = 40)): 46.8 (30.4–61.7) | 6-month OS (95% CI) ([2]; All patients with ACC (n = 40)): 72.4 (53.1–84.8) % | 6-month PFS (95% CI) ([2]; All patients with ACC (n = 40)): 18.6 (7.9–32.8) % | 9-month PFS (95% CI) ([2]; All patients with ACC (n = 40)): 6.2 (1.1–17.8) | 12-month OS (95% CI) ([2]; All patients with ACC (n = 40)): 57.3 (37.5–73.0) % | 12-month PFS (95% CI) ([2]; All patients with ACC (n = 40)): 6.2 (1.1–17.8) | Best overall response: Complete response ([2]; All patients with ACC (n = 40)): 0 n, % | Best overall response: Partial response ([2]; All patients with ACC (n = 40)): 0 n, % | Best overall response: Progressive disease ([2]; All patients with ACC (n = 40)): 13 (33) n, % | Best overall response: Stable disease ([2]; All patients with ACC (n = 40)): 23 n, % and 23 (58%) n, % and 23 (58) n, % | Best overall response: Unevaluable ([2]; All patients with ACC (n = 40)): 4 (10) n, % | Clinical benefit rate, 3 months (95% CI) ([2]; All patients with ACC (n = 40)): 57.5 (40.9–73.0) % | Clinical benefit rate, 6 months (95% CI) ([2]; All patients with ACC (n = 40)): 27.5 (14.6–43.9) % | Clinical benefit rate, 9 months (95% CI) ([2]; All patients with ACC (n = 40)): 2.5 (0.1–13.2) % | Median OS (95% CI) ([2]; All patients with ACC (n = 40)): 18.4 months | Median PFS (95% CI) ([2]; All patients with ACC (n = 40)): 2.5 (1.5–3.7) months | Overall survival: No. of deaths ([2]; All patients with ACC (n = 40)): 15 (38) n, % | Progression-free survival: No. of events ([2]; All patients with ACC (n = 40)): 35 (88) n, % | 3-month PFS (95% CI) [2, 4]: 38.7 (26.5–50.6) | 6-month OS (95% CI) [2, 4]: 68.4 (54.4–78.9) % | 6-month PFS (95% CI) [2, 4]: 15.5 (7.5–26.0) % | 9-month PFS (95% CI) [2, 4]: 5.8 (1.7–14.3) | 12-month OS (95% CI) [2, 4]: 41.6 (28.0–54.7) % | 12-month PFS (95% CI) [2, 4]: 3.9 (0.7–11.6) | Best overall response: Complete response [2, 4]: 0 n, % | Best overall response: Partial response [2, 4]: 0 n, % | Best overall response: Progressive disease [2, 4]: 29 (38) n, % | Best overall response: Stable disease [2, 4]: 37 (49%) n, % and 37 (49) n, % | Best overall response: Unevaluable [2, 4]: 10 (13) n, % | Clinical benefit rate, 3 months (95% CI) [2, 4]: 48.7 (37.0–60.4) % | Clinical benefit rate, 6 months (95% CI) [2, 4]: 15.8 (8.4–26.0) % | Clinical benefit rate, 9 months (95% CI) [2, 4]: 1.3 (0.0–7.1) % | Median OS (95% CI) [2, 4]: 9.2 (6.3–18.4) months | Median PFS (95% CI) [2, 4]: 1.9 (1.4–3.2) months | Overall survival: No. of deaths [2, 4]: 33 (43%) n, % and 33 (43) n, % | Progression-free survival: No. of events [2, 4]: 59 (78) n, % | Objective responses ([2]; all 76 solid tumor patients): no objective responses | Duration of stable disease on study ([2]; case: locoregionally recurrent ACC, NOTCH-activating mutation present): 3 months | Tumor regression in right parapharyngeal mass ([2]; case: locoregionally recurrent ACC, NOTCH-activating mutation present (30 to 25 mm)): −17% | Tumor regression in dominant liver lesion ([2]; case: patient with metastatic ACC with rapid progression prior to study entry (26.1–19.4 mm)): −25.7% | Duration of stable disease on study ([2]; case: patient with metastatic ACC, dominant liver lesion): 8 months | Median OS ([2]; heavily pretreated ACC cohort): under 2 years | Duration of SD ([2]; one patient, NOTCH1-activated metastatic ACC with tumor BCL2 overexpression, 250 mg twice daily): 3 months | ACC patients exhibiting SD ([2]; patients with ACC (n = 40)): 58%
